Experimental findings from US7776527B2, “Methods and compositions for reducing microbial induced apoptosis” (The Regents of the University of California, priority 2003, dated 2010) are described below.

Where two headings read alike, the source gives them in different places. Peptide text beside a SMILES is read from it. * marks the point of attachment. Cbz = O=C(OCc1ccccc1)*; CH2F = FC*

The test system of assay [1] is PKR−/− BMDMs. Type of assay: cell-based, mouse. Here is the method: A. Bone marrow derived macrophages (BMDMs) from PKR+/+ and PKR−/− mice were left untreated or treated with LPS plus SB202190 or LT (2.5 μg/ml PA+500 ng/ml LF), 15-deoxy-12,14-prostaglandin J2 (5 μM), or doxorubicin (10 μg/ml), as indicated. After 16 hrs, the cells were stained with Hoechst 33258 (blue) or annexin V-Alexa568 (red). […] (FIG. 9a) B. Bone marrow derived macrophages (BMDMs) from PKR+/+ or PKR−/− mice were incubated with LPS for various time periods (in days) and analyzed by TUNEL staining to determine the extent of apoptosis. […] (FIG. 9b)

The test system of assay [2] is bone marrow derived macrophages (BMDMs). Type of assay: cell-based, mouse. Conditions: for apoptotic response of BMDMs: C57BL/6J BMDMs.
Assay [3] concerns J774A.1 macrophage-like cells. In words: Nucleosomal DNA ladder in J774A.1 cells incubated with LPS plus SB202190 and pan-caspase inhibitor. Type of assay: cell-based. Conditions: inhibitor 10, 100, 200 μM, 18 hrs. How it is done:
A. J774A.1 macrophage-like cells were incubated with LPS plus SB202190 (10 μM) whereas NIH3T3 fibroblasts were incubated with mouse TNF-α (10 ng/ml) plus cycloheximide (25 μg/ml). At the indicated time points cell lysates were prepared and analyzed by immunoblotting with antibodies specific to caspase-8. (FIG. 8a) B. J774A.1 macrophage-like cells were incubated with LPS plus SB202190 (10 μm), whereas NIH3T3 fibroblasts were incubated with mouse TNF-α (10 ng/ml) plus cycloheximide (25 μg/ml). At the indicated time points cell lysates were prepared and analyzed by immunoblotting with antibodies specific to caspase-3. (FIG. 8b) C. J774A.1 macrophage-like cells were incubated with or without LPS in the absence or presence of SB202190. When indicated, increasing concentrations (10, 100, and 200 μM) of a pan-caspase inhibitor (ZVAD-FMK) were added. After 18 hrs, genomic DNA was isolated and analyzed by agarose gel electrophoresis and EtBr staining for appearance of nucleosomal ladders indicative of apoptosis. (FIG. 8c)

The test system of assay [4] is IKKβ-deficient macrophages. In words: TUNEL apoptosis of IKKβ-deficient macrophages treated with TLR agonists or TNF-α. Type of assay: cell-based, mouse. Conditions: without p38 inhibition, 12 hrs. How it is done:
Bone marrow derived macrophages from Ikkβ F/F (IKKβ+/+) or MX1Cre-Ikkβ F/F (IKKβ−/−) mice were untreated or treated with LPS (100 ng/ml), LTA from B. subtilis (10 μg/ml), poly(IC) (10 μg/ml), SBLP (Pam3CSK4, 1 μg/ml), CpG-containing DNA (1 μM), and mouse TNF-α (10 ng/ml). After 12 hrs, apoptotic cell death was quantitated by TUNEL staining. Inset, macrophage lysates were analyzed by immunoblotting with antibodies specific to IKKβ and p38. (FIG. 2e)

For assay [5], the target named is T1, PKR (Mus musculus, UniProt Q03963).
T1 construct: endogenous in cells; host or cells: wild-type mouse bone marrow derived macrophages (BMDMs)
T1 sequence (Q03963 1-515): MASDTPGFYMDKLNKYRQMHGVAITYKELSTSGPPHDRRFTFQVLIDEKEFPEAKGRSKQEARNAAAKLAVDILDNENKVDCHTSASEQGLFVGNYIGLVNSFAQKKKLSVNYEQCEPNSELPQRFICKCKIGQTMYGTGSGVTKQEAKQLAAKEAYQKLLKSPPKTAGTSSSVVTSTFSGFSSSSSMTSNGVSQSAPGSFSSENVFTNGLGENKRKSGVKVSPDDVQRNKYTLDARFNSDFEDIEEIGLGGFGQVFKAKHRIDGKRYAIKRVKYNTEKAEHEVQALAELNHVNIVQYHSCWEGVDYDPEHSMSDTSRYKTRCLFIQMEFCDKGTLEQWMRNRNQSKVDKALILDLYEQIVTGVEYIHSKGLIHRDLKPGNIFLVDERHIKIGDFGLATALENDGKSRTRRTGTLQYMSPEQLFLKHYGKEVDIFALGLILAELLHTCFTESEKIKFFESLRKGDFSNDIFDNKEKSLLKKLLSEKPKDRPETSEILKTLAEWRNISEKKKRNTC
Briefly: PKR activation by autophosphorylation and eIF2α phosphorylation in macrophages. Type of assay: cell-based. Conditions: for PKR activation (autophosphorylation, eIF2α phosphorylation): wt macrophages. Here is the method: Whole cell extracts were prepared and PKR activity was measured by autophosphorylation (Gusella et al. J Immunol 154, 345-54, 1995) after immunoprecipitation with anti-PKR antibody (Santa Cruz).
Phosphorylation of eIF2α was detected by immunoblotting with antibody against phosphorylated eIF2α (Biosource, Camarillo, Calif.). The same blot was stripped and probed with antibody against total eIF2αIKK and MAPK activation were measured as described (Park et al. Science 297, 2048-51, 2002). Phosphorylation of STAT1 (Medzhitov et al. Nature 388, 394-7 (1997) was monitored by immunoblotting with anti-phospho-STAT1 antibody (Cell Signaling, Beverly, Mass.).
Bone marrow derived macrophages (BMDMs) (wt) were stimulated with LPS (100 ng/ml) or poly(IC) (10 μg/ml) or left unstimulated. At the indicated time points cells were lysed and PKR activation was monitored by autophosphorylation. Gel loading was controlled by immunoblotting for PKR. The same lysates were monitored for eIF-2α phosphorylation by immunoblotting with antibodies specific for phosphorylated eIF-2a (P-eIF-2α) and total eIF-2α (FIG. 3a)

Assay [6] relates to S. typhimurium. Briefly: Systemic S. typhimurium infection of mice pretreated with poly(IC). Type of assay: in vivo. Here is the method: Mice (7-10 weeks old) were injected i.p. with either PBS or 200-300 μg poly(IC) in PBS. After 20 hrs, mice were injected i.p. with 10^6 S. typhiumurium 14028 in PBS. Mice that were still alive were sacrificed after 24 hrs and their spleens removed. For certain experiments, tissue was homogenized in PBS+0.1% Triton X-100. To determine bacterial counts, tissue homogenates were diluted in PBS and plated on LB agar and colonies were counted after overnight incubation at 37° C.
B. Mice (wt and PKR−/−) were Injected i.p. with PBS or 200-300 μg Poly(IC) in PBS
After 20 hrs the mice were injected i.p. with 10^6 S. typhimurium (14028) bacteria suspended in PBS. After 24 hrs, survival was monitored and mice that were still alive were sacrificed and the numbers of live bacteria within their spleens determined. * represents p=0.007. (FIG. 7b)
C. Mice were Treated as Above and Parts of their Spleens Analyzed for the Presence Of Apoptotic Cells by TUNEL Staining
Photograph was taken from the splenic red pulp where macrophages reside. (FIG. 7c)

Assay [7] relates to A1/Bfl1. Briefly: Immunoblotting of A1/Bfl1 and cIAP-1 after poly(IC) transfection and LPS. Type of assay: cell-based, mouse. Conditions: wt BMDMs, poly(IC) transfection followed by LPS. How it is done: PKR+/+ and PKR−/− BMDMs were transfected with or without poly(IC) using Lipofectamine (Diebold et al. Nature 424, 324-328, 2003). After 6 hrs, LPS was added and the levels of A1/Bfl1 and cIAP-1 were examined by immunoblotting. (FIG. 5b)
Background: In western blotting, separated proteins are transferred to a membrane and probed.

Assay [8] has as its system bone marrow derived macrophages (BMDMs). Type of assay: cell-based, mouse. Conditions: BMDMs preincubated with poly(IC) 6 hrs before infection.
Where [9] appears, read: with p38 inhibition (SB202190 10 μM), 18 hrs.

Consider `CCCCCC=CC=C1C(=O)C=C[C@@H]1CC=CCCCC(=O)O` [15-deoxy-12,14-prostaglandin J2], for which the “apoptosis of PKR−/− BMDMs” value in assay [1] was “still underwent apoptosis”.

On to `Oc1ccc(-c2nc(-c3ccncc3)c(-c3ccc(F)cc3)[nH]2)cc1` [SB202190], for which the “macrophage apoptosis induced by heat-inactivated B. anthracis” value in assay [2] (in the presence of SB202190 (10 μM), 18 hrs, TUNEL) is “extensive macrophage apoptosis”.

On to `C[C@@H]1C[C@@H]([C@H](O)CC2CC(=O)NC(=O)C2)C(=O)[C@@H](C)C1` [cycloheximide], for which the “apoptosis on mere incubation” value in assay [2] (wt or PKR−/− BMDMs, cycloheximide 10 μg/ml) is “triggered apoptosis”.

Take `COc1cccc2c1C(=O)c1c(O)c3c(c(O)c1C2=O)C[C@@](O)(C(=O)CO)C[C@@H]3O[C@H]1C[C@H](N)[C@H](O)[C@H](C)O1` [doxorubicin]: the “apoptosis of PKR−/− BMDMs” value in assay [1] (PKR−/− BMDMs, 16 hrs, annexin V) is “still underwent apoptosis”.

In the case of `COC(=O)C[C@H](NC(=O)[C@H](C)NC(=O)[C@@H](NC(=O)OCc1ccccc1)C(C)C)C(=O)CF` [pan-caspase inhibitor, ZVAD-FMK] (Cbz-Val-Ala-Asp(OMe)-CH2F), in assay [3], the “effect on LPS-induced macrophage apoptosis” value is on record as “apoptosis was inhibited”.

As to Pam3CSK4 [SBLP], the “apoptotic response of BMDMs” value in assay [2] (setting [9]) is given as “Little apoptosis”.

With TNF-α, the “apoptosis of IKKβ-deficient macrophages” value in assay [4] is reported as “underwent apoptosis”.

As for lipopolysaccharide [LPS], the “apoptosis of IKKβ-deficient macrophages” value in assay [4] is “underwent apoptosis”. For the same compound, the “apoptotic response of BMDMs” value in assay [2] (setting [9]) is reported as “strong apoptotic response”. The “apoptosis on prolonged incubation” value in assay [2] (wt BMDMs, without p38 inhibition, prolonged incubation (days)) is “resulted in apoptosis”. Besides, the “PKR activation (autophosphorylation, eIF2α phosphorylation)” value in assay [5] is recorded as “rapidly activated”.

In the case of lipoteichoiec acid [LTA], the “apoptosis of IKKβ-deficient macrophages” value in assay [4] is listed as “underwent apoptosis”.

Take poly(IC): the “enhancement of bacterial load, apoptosis or mortality” value in assay [6] (PKR−/− mice, poly(IC) pretreatment) is “little enhancement”. Further, the “number of apoptotic cells in the red pulp of the spleens” value in assay [6] (S. typhimurium infected wt mice, poly(IC) pretreatment) is given as “increased the number of apoptotic cells”. For the same compound, in assay [6] (wt mice, 200-300 μg poly(IC) i.p. before S. typhimurium, 24 hrs), the “increase in number of live bacteria recovered from the spleen” value worked out at 3.5 fold. For the same compound, the “mortality caused by S. typhimurium infection” value in assay [6] (wt mice, poly(IC) pretreatment) was “increased the mortality”. Further, in assay [4], the “apoptosis of IKKβ-deficient macrophages” value was “more susceptible”. Moreover, the “accumulation of A1/Bfl1” value in assay [7] is “inhibited the accumulation”. Moreover, the “effect on apoptosis in response to live S. typhimurium or Y. pseudotuberculosis” value in assay [8] is “potentiated apoptosis”. For the same compound, the “apoptotic response of BMDMs” value in assay [2] (without p38 inhibition, 18 hrs) was “weak apoptotic response”. Besides, in assay [2] (poly(IC) transfection, LPS added 6 hrs later, 18 hrs), the “apoptosis after transfection versus simple addition to culture medium” value is recorded as “higher level of apoptosis”. In addition, the “sensitization of BMDMs to LPS-induced apoptosis” value in assay [2] (with LPS, without SB202190) is “renders BMDMs susceptible to LPS-induced apoptosis”. In addition, in assay [5] (poly(IC) introduced by transfection (lipofectamine)), the “PKR activity after transfection versus simple addition to culture medium” value was “higher levels of PKR activity”. Also, in assay [5], the “PKR activation (autophosphorylation, eIF2α phosphorylation)” value is recorded as “rapidly activated”.
